Reference: patent US11180474B2 (BRISTOL-MYERS SQUIBB COMPANY, priority 2016, dated 2021)
pIC50: −log10 of the molar value.

Assays:
human TLR8 = target: T1, human TLR8 (Homo sapiens, UniProt Q9NR97); assay: TLR8 inhibition reporter assay (HEK-Blue cells, SEAP reporter, R848 stimulation); assay type: cell-based; settings: HEK-Blue cells overexpressing human TLR8, R848 15.9 μM
T1 construct: host or cells: HEK-Blue cells
T1 sequence (Q9NR97 27-1041): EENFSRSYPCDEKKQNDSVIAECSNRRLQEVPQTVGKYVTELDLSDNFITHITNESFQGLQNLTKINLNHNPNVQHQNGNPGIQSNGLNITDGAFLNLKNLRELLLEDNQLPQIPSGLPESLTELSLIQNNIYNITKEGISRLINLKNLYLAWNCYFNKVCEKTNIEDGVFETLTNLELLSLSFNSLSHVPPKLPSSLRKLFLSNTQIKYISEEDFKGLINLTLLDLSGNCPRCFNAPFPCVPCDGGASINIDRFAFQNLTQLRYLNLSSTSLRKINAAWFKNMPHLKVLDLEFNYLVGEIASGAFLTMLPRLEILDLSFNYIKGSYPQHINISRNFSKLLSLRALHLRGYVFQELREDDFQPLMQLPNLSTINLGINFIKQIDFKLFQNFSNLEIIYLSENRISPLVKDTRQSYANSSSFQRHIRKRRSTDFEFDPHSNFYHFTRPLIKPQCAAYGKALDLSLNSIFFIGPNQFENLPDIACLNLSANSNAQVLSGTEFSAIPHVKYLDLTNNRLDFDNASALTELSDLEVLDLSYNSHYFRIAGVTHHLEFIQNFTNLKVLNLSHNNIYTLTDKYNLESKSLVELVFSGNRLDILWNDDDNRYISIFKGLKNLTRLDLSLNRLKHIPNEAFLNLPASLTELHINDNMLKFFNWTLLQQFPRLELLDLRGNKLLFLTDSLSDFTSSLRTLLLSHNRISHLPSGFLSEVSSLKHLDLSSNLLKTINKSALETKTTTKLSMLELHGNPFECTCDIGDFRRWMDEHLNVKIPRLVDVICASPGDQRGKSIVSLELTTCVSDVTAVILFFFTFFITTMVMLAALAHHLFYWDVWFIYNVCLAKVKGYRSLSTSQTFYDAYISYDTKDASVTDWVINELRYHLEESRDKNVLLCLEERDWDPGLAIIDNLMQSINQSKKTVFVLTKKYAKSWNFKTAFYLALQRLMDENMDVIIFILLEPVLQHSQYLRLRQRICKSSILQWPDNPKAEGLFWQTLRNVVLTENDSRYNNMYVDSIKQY
How it was run: (§1)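 22 h, 37° C, 5% CO2 incubation; compounds 0.05 nM-50 μM final; TLR7 cells 15000/well, TLR8 20,000/well. Readout: SEAP via HEK-Blue Detection medium. % inhibition = signal reduction versus agonist + DMSO wells, referenced to known inhibitor.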

human TLR7 = target: T2, human TLR7 (Homo sapiens, UniProt Q9NYK1); assay: TLR7 inhibition reporter assay (HEK-Blue cells, SEAP reporter, gardiquimod stimulation); assay type: cell-based; settings: HEK-Blue cells overexpressing human TLR7, gardiquimod 7.5 μM
T2 construct: host or cells: HEK-Blue cells
T2 sequence (Q9NYK1 27-1049): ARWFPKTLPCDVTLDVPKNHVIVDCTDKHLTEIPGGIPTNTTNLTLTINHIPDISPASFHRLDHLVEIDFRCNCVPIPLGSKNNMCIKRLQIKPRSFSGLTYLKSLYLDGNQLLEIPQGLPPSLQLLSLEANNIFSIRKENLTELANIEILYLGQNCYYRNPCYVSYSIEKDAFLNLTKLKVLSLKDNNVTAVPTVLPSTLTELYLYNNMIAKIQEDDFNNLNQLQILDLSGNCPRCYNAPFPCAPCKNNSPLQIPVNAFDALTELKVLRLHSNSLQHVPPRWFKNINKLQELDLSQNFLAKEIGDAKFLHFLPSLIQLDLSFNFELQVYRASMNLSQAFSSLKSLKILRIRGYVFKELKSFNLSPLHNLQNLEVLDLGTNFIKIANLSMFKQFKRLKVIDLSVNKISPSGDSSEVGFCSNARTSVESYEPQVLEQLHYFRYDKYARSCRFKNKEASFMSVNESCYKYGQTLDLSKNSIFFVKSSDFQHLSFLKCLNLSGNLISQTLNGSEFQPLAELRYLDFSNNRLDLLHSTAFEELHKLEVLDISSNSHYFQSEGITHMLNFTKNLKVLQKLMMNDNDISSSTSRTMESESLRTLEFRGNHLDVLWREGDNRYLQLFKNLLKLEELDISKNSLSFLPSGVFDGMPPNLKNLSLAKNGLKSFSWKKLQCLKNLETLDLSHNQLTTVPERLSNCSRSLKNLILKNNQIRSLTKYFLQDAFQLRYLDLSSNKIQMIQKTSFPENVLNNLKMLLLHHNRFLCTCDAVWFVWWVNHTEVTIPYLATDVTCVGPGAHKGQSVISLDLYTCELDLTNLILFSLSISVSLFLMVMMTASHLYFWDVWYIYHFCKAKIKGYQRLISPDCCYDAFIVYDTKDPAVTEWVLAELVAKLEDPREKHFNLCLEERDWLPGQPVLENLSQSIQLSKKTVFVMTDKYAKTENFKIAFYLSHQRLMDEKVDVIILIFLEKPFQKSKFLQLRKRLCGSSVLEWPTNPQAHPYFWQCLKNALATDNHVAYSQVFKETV
How it was run: as §1

SMILES | pIC50 (human TLR8) | pIC50 (human TLR7)
COc1ccc(-c2[nH]c3ccc(C4CCN(C(=O)CN5CCCC(C(=O)NC6CCN(C(C)C)CC6)C5)CC4)cc3c2C(C)C)cc1OC (single isomer, unassigned) [Example 280, 1-(2-(4-(2-(3,4-dimethoxyphenyl)-3-isopropyl-1H-indol-5-yl)piperidin-1-yl)-2-oxoethyl)-N-(1-isopropylpiperidin-4-yl)piperidine-3-carboxamide] | 7.66 | 7.59
COc1ccc(-c2[nH]c3ccc(C4CCN(C(=O)CN5CCCC(C(=O)NC6CCN(C(C)C)CC6)C5)CC4)cc3c2C(C)C)cc1OC (single isomer, unassigned) [Example 281, 1-(2-(4-(2-(3,4-dimethoxyphenyl)-3-isopropyl-1H-indol-5-yl)piperidin-1-yl)-2-oxoethyl)-N-(1-isopropylpiperidin-4-yl)piperidine-3-carboxamide] | 7.70 | 7.77
COc1ccc(-c2[nH]c3ccc(C4CCNCC4O)cc3c2C(C)C)cc1OC (single isomer, unassigned) [Example 318, 4-(2-(3,4-dimethoxyphenyl)-3-isopropyl-1H-indol-5-yl)piperidin-3-ol 2,2,2-trifluoroacetate] | 5.22 | 5.48
COc1ccc(-c2[nH]c3ccc(C4CCN(C5C[C@H]6CC[C@@H](C5)N6C)CC4)cc3c2C)cc1OC (stereo partly drawn) [Example 21, 2-(3,4-dimethoxyphenyl)-3-methyl-5-(1-((1R,5S)-8-methyl-8-azabicyclo[3.2.1]octan-3-yl)piperidin-4-yl)-1H-indole] | 6.62 | 7.14
COc1ccc(-c2[nH]c3ccc(C4CCN(C5CCN(C6CC6)CC5)CC4)cc3c2C)cc1OC [Example 23, 5-(1′-cyclopropyl-[1,4′-bipiperidin]-4-yl)-2-(3,4-dimethoxyphenyl)-3-methyl-1H-indole] | 6.82 | 7.00
CCN(CC)C(=O)C1CCCN(CC(=O)N2CCC(c3ccc4[nH]c(-c5ccc(OC)c(OC)c5)c(C(C)C)c4c3)CC2)C1 (centres unmarked) [Example 224, 1-(2-(4-(2-(3,4-dimethoxyphenyl)-3-isopropyl-1H-indol-5-yl)piperidin-1-yl)-2-oxoethyl)-N,N-diethylpiperidine-3-carboxamide] | 7.57 | 7.34
COc1ccc(-c2[nH]c3ccc(C4CCN(C(=O)CN(C)C(C)C)CC4)cc3c2C(C)C)cc1OC [Example 227, 1-(4-(2-(3,4-dimethoxyphenyl)-3-isopropyl-1H-indol-5-yl)piperidin-1-yl)-2-(isopropyl(methyl)amino) ethan-1-one] | 7.62 | 7.54
COc1ccc(-c2[nH]c3ccc(C4CCN(C(=O)CN5CCN(CC(=O)NC(C)C)CC5)CC4)cc3c2C(C)C)cc1OC [Example 229, 2-(4-(2-(4-(2-(3,4-dimethoxyphenyl)-3-isopropyl-1H-indol-5-yl)piperidin-1-yl)-2-oxoethyl)piperazin-1-yl)-N-isopropylacetamide] | 7.37 | 7.60
COc1ccc(-c2[nH]c3ccc(C4CCN(C(=O)CNCCOCCO)CC4)cc3c2C(C)C)cc1OC [Example 230, 1-(4-(2-(3,4-dimethoxyphenyl)-3-isopropyl-1H-indol-5-yl)piperidin-1-yl)-2-((2-(2-hydroxyethoxy)ethyl)amino)ethan-1-one] | 7.74 | 7.72
COc1ccc(-c2[nH]c3ccc(C4CCN(C(=O)CN[C@H]5CC[C@H](N)CC5)CC4)cc3c2C(C)C)cc1OC [Example 232, 2-(((1r,4r)-4-aminocyclohexyl)amino)-1-(4-(2-(3,4-dimethoxyphenyl)-3-isopropyl-1H-indol-5-yl)piperidin-1-yl)ethan-1-one] | 6.77 | 6.92
CCC(CO)NCC(=O)N1CCC(c2ccc3[nH]c(-c4ccc(OC)c(OC)c4)c(C(C)C)c3c2)CC1 (centres unmarked) [Example 233, 1-(4-(2-(3,4-dimethoxyphenyl)-3-isopropyl-1H-indol-5-yl)piperidin-1-yl)-2-((1-hydroxybutan-2-yl)amino)ethan-1-one] | 7.57 | 7.64
COc1ccc(-c2[nH]c3ccc(C4CCN(C(=O)CNC[C@H](O)CO)CC4)cc3c2C(C)C)cc1OC [Example 235, (S)-2-((2,3-dihydroxypropyl)amino)-1-(4-(2-(3,4-dimethoxyphenyl)-3-isopropyl-1H-indol-5-yl)piperidin-1-yl)ethan-1-one] | 7.41 | 7.82

More lines, now with the values ahead:

pIC50 (human TLR8) | pIC50 (human TLR7) | SMILES
7.09 | 7.42 | COc1ccc(-c2[nH]c3ccc(C4CCNCC4O)cc3c2C(C)C)cc1OC (single isomer, unassigned) [Example 317, 4-(2-(3,4-dimethoxyphenyl)-3-isopropyl-1H-indol-5-yl)piperidin-3-ol 2,2,2-trifluoroacetate]
7.17 | 7.35 | COc1ccc(-c2[nH]c3ccc(C4CCN(C(=O)CN5CCCN(C(C)=O)CC5)CC4)cc3c2C(C)C)cc1OC [Example 222, 2-(4-acetyl-1,4-diazepan-1-yl)-1-(4-(2-(3,4-dimethoxyphenyl)-3-isopropyl-1H-indol-5-yl)piperidin-1-yl)ethan-1-one]
7.01 | 7.32 | COc1ccc(-c2[nH]c3ccc(C4CCN(C(=O)CN5CCOCC5)CC4)cc3c2C(C)C)cc1OC [Example 223, 1-(4-(2-(3,4-dimethoxyphenyl)-3-isopropyl-1H-indol-5-yl)piperidin-1-yl)-2-morpholinoethan-1-one]
7.77 | 7.80 | COc1ccc(-c2[nH]c3ccc(C4CCN(C(=O)CN5CCCC(CO)C5)CC4)cc3c2C(C)C)cc1OC (centres unmarked) [Example 226, 1-(4-(2-(3,4-dimethoxyphenyl)-3-isopropyl-1H-indol-5-yl)piperidin-1-yl)-2-(3-(hydroxymethyl)piperidin-1-yl)ethan-1-one]
6.93 | 7.34 | COc1ccc(-c2[nH]c3ccc(C4CCN(C(=O)CNCC(N)=O)CC4)cc3c2C(C)C)cc1OC [Example 228, 2-((2-(4-(2-(3,4-dimethoxyphenyl)-3-isopropyl-1H-indol-5-yl)piperidin-1-yl)-2-oxoethyl)amino)acetamide]
7.20 | 7.02 | COc1ccc(-c2[nH]c3ccc(C4CCN(C(=O)CN[C@H](CO)CC(C)C)CC4)cc3c2C(C)C)cc1OC [Example 231, (S)-1-(4-(2-(3,4-dimethoxyphenyl)-3-isopropyl-1H-indol-5-yl)piperidin-1-yl)-2-((1-hydroxy-4-methylpentan-2-yl)amino)ethan-1-one]
7.20 | 6.76 | COc1ccc(-c2[nH]c3ccc(C4CCN(C(=O)CN[C@@H](CO)CC(C)C)CC4)cc3c2C(C)C)cc1OC [Example 234, (R)-1-(4-(2-(3,4-dimethoxyphenyl)-3-isopropyl-1H-indol-5-yl)piperidin-1-yl)-2-((1-hydroxy-4-methylpentan-2-yl)amino) ethan-1-one]
